According to patent US20020065303A1, “Bivalent phenylene inhibitors of factor Xa” (priority 2000, published 2002):

Tests used:
Format in all cases: biochemical
Prothrombinase = Prothrombinase (Homo sapiens, UniProt P00742); assay: Prothrombinase inhibition assay, plasma free system; settings: factor Xa 0.5 nM, factor Va 2 nM, PS:PC, 5 min preincubation; read-out: Inhibitory Activity (IC50) Prothrombinase IIase
Procedure: (§1) The compounds of the present invention are dissolved in buffer to give solutions containing concentrations such that assay concentrations range from about 0 to about 100 μM. In the assays for thrombin, prothrombinase and factor Xa, a synthetic chromogenic substrate is added to a solution containing test compound and the enzyme of interest and the residual catalytic activity of that enzyme is determined spectrophotometrically. The IC50 of a compound is determined from the substrate turnover. The IC50 is the concentration of test compound giving about 50% inhibition of the substrate turnover.
The prothrombinase inhibition assay is performed in a plasma free system with modifications to the method described by Sinha, U. et al., Thromb. Res., 75, 427-436 (1994). Specifically, the activity of the prothrombinase complex is determined by measuring the time course of thrombin generation using the p-nitroanilide substrate Chromozym TH. The assay consists of preincubation (5 minutes) of selected compounds to be tested as inhibitors with the complex formed from factor Xa (0.5 nM), factor Va (2 nM), phosphatidyl serine:phosphatidyl choline (25:75, 20 μM) in 20 mM Tris.HCl buffer, pH 7.5, containing 0.15 M NaCl, 5 mM CaCl2 and 0.1% bovine serum albumin. […] The rate of substrate cleavage is monitored at 405 nm for two minutes. […]

Factor Xa = Factor Xa (Homo sapiens, UniProt P00742); assay: Factor Xa amidolytic assay (chromogenic substrate S-2765); settings: room temperature, pH 7.5, 5 min preincubation; read-out: Inhibitory Activity (IC50) Factor Xa Xa
Sequence of Factor Xa (P00742 235-488 limits assumed): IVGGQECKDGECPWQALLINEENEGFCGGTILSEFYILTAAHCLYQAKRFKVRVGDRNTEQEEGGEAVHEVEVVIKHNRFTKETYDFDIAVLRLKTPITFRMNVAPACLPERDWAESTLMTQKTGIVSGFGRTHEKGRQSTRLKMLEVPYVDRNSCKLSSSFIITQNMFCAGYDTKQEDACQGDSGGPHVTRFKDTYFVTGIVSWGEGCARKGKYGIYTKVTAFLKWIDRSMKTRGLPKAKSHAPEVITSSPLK
Sequence of Factor Xa (P00742 41-179 limits assumed): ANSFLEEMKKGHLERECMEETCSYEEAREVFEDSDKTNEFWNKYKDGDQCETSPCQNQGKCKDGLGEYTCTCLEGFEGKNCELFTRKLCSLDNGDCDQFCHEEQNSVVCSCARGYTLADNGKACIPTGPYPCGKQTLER
Procedure: as §1
(§2) The factor Xa and thrombin assays are performed at room temperature, in 0.02 M Tris.HCl buffer, pH 7.5, containing 0.15 M NaCl. The rates of hydrolysis of the para-nitroanilide substrate S-2765 (Chromogenix) for factor Xa, and the substrate Chromozym TH (Boehringer Mannheim) for thrombin following preincubation of the enzyme with inhibitor for 5 minutes at room temperature, and are determined using the Softmax 96-well plate reader (Molecular Devices), monitored at 405 nm to measure the time dependent appearance of p-nitroaniline.

Thrombin = Thrombin (Homo sapiens, UniProt P00734); assay: Thrombin amidolytic assay (chromogenic substrate Chromozym TH); settings: room temperature, pH 7.5, 5 min preincubation; read-out: Inhibitory Activity (IC50) Thrombin IIa
Procedure: as §1, §2

Sequence of Prothrombinase (P00742 235-488 limits assumed): as the sequence (P00742 235-488 limits assumed) above
Sequence of Prothrombinase (P00742 41-179 limits assumed): as the sequence (P00742 41-179 limits assumed) above
Sequence of Prothrombinase (P12259 29-737 partner limits assumed): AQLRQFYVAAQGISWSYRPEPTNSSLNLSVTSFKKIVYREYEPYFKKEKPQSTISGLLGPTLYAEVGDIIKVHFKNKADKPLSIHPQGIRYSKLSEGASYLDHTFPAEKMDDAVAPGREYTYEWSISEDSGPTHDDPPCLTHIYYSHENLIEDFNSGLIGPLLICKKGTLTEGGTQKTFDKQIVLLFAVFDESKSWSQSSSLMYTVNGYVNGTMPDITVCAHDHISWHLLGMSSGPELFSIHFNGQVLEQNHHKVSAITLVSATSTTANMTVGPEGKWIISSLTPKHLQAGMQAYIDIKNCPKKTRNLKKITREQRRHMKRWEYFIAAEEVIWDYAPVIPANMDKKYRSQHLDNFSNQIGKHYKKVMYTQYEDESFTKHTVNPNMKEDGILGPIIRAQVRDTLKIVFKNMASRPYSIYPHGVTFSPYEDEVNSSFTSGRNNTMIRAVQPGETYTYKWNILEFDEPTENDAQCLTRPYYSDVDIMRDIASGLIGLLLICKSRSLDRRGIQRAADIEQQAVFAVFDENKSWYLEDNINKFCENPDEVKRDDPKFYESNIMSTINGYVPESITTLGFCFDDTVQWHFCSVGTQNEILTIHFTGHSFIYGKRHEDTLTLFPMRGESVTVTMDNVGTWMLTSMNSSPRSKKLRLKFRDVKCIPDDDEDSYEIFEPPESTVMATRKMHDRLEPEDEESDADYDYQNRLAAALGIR
Sequence of Prothrombinase (P12259 1574-2224 partner limits assumed): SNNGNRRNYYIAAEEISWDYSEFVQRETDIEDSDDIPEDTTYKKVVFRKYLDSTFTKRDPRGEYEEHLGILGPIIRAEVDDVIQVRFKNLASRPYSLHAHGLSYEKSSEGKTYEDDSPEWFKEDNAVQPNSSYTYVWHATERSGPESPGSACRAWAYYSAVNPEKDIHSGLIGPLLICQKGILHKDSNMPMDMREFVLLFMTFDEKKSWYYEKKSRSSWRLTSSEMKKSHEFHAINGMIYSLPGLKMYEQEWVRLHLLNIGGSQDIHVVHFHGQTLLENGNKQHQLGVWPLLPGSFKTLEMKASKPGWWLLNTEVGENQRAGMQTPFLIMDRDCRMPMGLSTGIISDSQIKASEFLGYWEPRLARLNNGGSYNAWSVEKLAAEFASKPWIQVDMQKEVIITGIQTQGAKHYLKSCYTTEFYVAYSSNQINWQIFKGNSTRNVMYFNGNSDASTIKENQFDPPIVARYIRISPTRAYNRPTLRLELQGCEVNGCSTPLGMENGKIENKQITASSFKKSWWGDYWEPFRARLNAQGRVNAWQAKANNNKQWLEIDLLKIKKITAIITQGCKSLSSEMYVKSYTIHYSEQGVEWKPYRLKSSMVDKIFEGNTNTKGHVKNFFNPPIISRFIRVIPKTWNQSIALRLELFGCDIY

Row | IC50 (Prothrombinase) [µM] | IC50 (Factor Xa) [µM] | IC50 (Thrombin) [µM] | SMILES
1 | 20 | 0.059 | 139 | CC(=N)N1CCC(Oc2ccc(C(=O)NCc3cccc(C(=N)N)c3)cc2)CC1
2 | 4 | 0.201 | 270 | COC(=O)C(Cc1cccc(C(=N)N)c1)NC(=O)c1ccc(OC2CCN(C(C)=N)CC2)cc1 (stereo not drawn)
